How the values were obtained:
Format in all cases: in vivo
[1] = system: corn (Zea mays); experiment: Test G Pre-Emergence Protocol; conditions: Zea mays, pre-emergence, 312 h, evaluated after 13 days; for plant injury at 15.625 g/ha: 15.625 g ai/ha; for plant injury at 15.625 g/ha / plant injury at 250 g/ha: read-out: Corn damage rating (100=total damage to plant; 0=no damage to plant); for plant injury at 62.5 g/ha: 62.5 g ai/ha, 100=total damage to plant, 0=no damage to plant, read-out: plant damage rating, Corn; for plant injury at 250 g/ha: 250 g ai/ha
Outline: (§1)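 Test compound in 0.5% Tween 20 acetone/water (50:50) was applied at three rates (15.625, 62.5, 250 g/ha) to soil sown one day earlier. After 13 days plants were scored for injury, where 0 means unaffected and 100 means completely damaged.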

[2] = system: ivy-leaved morning glory (Ipomoea hederacea); experiment: Test G Pre-Emergence Protocol; conditions: Ipomoea, pre-emergence, 312 h, evaluated after 13 days; for pest or weed control at 15.625 g/ha: 15.625 g ai/ha, read-out: Morning-glory, Ivy-leaved damage rating (100=total damage to plant; 0=no damage to plant); for pest or weed control at 62.5 g/ha: 62.5 g ai/ha, 100=total damage to plant, 0=no damage to plant, read-out: plant damage rating, Morningglory, Ivy-leaved; for pest or weed control at 250 g/ha: 250 g ai/ha, read-out: Morningglory, Ivy-leaved damage rating (100=total damage to plant; 0=no damage to plant)
Outline: as §1

[3] = system: barnyardgrass (Echinochloa crus-galli); experiment: Test G Pre-Emergence Protocol; conditions: Echinochloa crus-galli, pre-emergence, 312 h, evaluated after 13 days; for pest or weed control at 15.625 g/ha: 15.625 g ai/ha, read-out: Barnyard grass damage rating (100=total damage to plant; 0=no damage to plant); for pest or weed control at 62.5 g/ha: 62.5 g ai/ha, 100=total damage to plant, 0=no damage to plant, read-out: plant damage rating, Barnyardgrass; for pest or weed control at 250 g/ha: 250 g ai/ha, read-out: Barnyardgrass damage rating (100=total damage to plant; 0=no damage to plant)
Outline: as §1

[4] = system: redroot pigweed (Amaranthus retroflexus); experiment: Test G Pre-Emergence Protocol; conditions: Amaranthus retroflexus, pre-emergence, 312 h, evaluated after 13 days; for pest or weed control at 15.625 g/ha: 15.625 g ai/ha; for pest or weed control at 15.625 g/ha / pest or weed control at 250 g/ha: read-out: Pigweed, Redroot damage rating (100=total damage to plant; 0=no damage to plant); for pest or weed control at 62.5 g/ha: 62.5 g ai/ha, 100=total damage to plant, 0=no damage to plant, read-out: plant damage rating, Pigweed, Redroot; for pest or weed control at 250 g/ha: 250 g ai/ha
Outline: as §1

[5] = system: giant foxtail (Setaria faberi); experiment: Test G Pre-Emergence Protocol; conditions: Setaria faberi, pre-emergence, 312 h, evaluated after 13 days; for pest or weed control at 15.625 g/ha: 15.625 g ai/ha; for pest or weed control at 15.625 g/ha / pest or weed control at 250 g/ha: read-out: Foxtail, Giant damage rating (100=total damage to plant; 0=no damage to plant); for pest or weed control at 62.5 g/ha: 62.5 g ai/ha, 100=total damage to plant, 0=no damage to plant, read-out: plant damage rating, Foxtail, Giant; for pest or weed control at 250 g/ha: 250 g ai/ha
Outline: as §1

[6] = system: velvetleaf (Abutilon theophrasti); experiment: Test G Pre-Emergence Protocol; conditions: Abutilon theophrasti, pre-emergence, 312 h, evaluated after 13 days; for pest or weed control at 15.625 g/ha: 15.625 g ai/ha; for pest or weed control at 15.625 g/ha / pest or weed control at 250 g/ha: read-out: Velvetleaf damage rating (100=total damage to plant; 0=no damage to plant); for pest or weed control at 62.5 g/ha: 62.5 g ai/ha, 100=total damage to plant, 0=no damage to plant, read-out: plant damage rating, Velvetleaf; for pest or weed control at 250 g/ha: 250 g ai/ha
Outline: as §1

[7] = system: corn (Zea mays); experiment: Test G Post-Emergence Protocol; conditions: Zea mays, post-emergence, 312 h; for plant injury at 15.625 g/ha: 15.625 g ai/ha, evaluated after 13 days (100=total damage to plant; 0=no damage to plant), read-out: Corn damage rating; for plant injury at 62.5 g/ha: 62.5 g ai/ha, read-out: Corn damage rating (100=total damage to plant; 0=no damage to plant); for plant injury at 62.5 g/ha / plant injury at 250 g/ha: evaluated after 13 days; for plant injury at 250 g/ha: 250 g ai/ha, read-out: damage to plant, Corn (100=total damage to plant; 0=no damage to plant)
Outline: (§2)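 A glasshouse post-emergence test: 8-day-old plants sprayed at 15.625, 62.5 or 250 g/ha, then grown at 24/16 °C day/night with 14 h light and 65% humidity. Damage rated 13 days later, 0–100.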

[8] = system: ivy-leaved morning glory (Ipomoea hederacea); experiment: Test G Post-Emergence Protocol; conditions: Ipomoea, post-emergence, 312 h; for pest or weed control at 15.625 g/ha: 15.625 g ai/ha, evaluated after 13 days (100=total damage to plant; 0=no damage to plant), read-out: Morningglory, Ivy-leaved damage rating; for pest or weed control at 62.5 g/ha: 62.5 g ai/ha, read-out: Morningglory, Ivy-leaved damage rating (100=total damage to plant; 0=no damage to plant); for pest or weed control at 62.5 g/ha / pest or weed control at 250 g/ha: evaluated after 13 days; for pest or weed control at 250 g/ha: 250 g ai/ha, read-out: damage to plant, Morningglory, Ivy-leaved (100=total damage to plant; 0=no damage to plant)
Outline: as §2

[9] = system: barnyardgrass (Echinochloa crus-galli); experiment: Test G Post-Emergence Protocol; conditions: Echinochloa crus-galli, post-emergence, 312 h; for pest or weed control at 15.625 g/ha: 15.625 g ai/ha, evaluated after 13 days (100=total damage to plant; 0=no damage to plant), read-out: Barnyardgrass damage rating; for pest or weed control at 62.5 g/ha: 62.5 g ai/ha, read-out: Barnyardgrass damage rating (100=total damage to plant; 0=no damage to plant); for pest or weed control at 62.5 g/ha / pest or weed control at 250 g/ha: evaluated after 13 days; for pest or weed control at 250 g/ha: 250 g ai/ha, read-out: damage to plant, Barnyardgrass (100=total damage to plant; 0=no damage to plant)
Outline: as §2

[10] = system: redroot pigweed (Amaranthus retroflexus); experiment: Test G Post-Emergence Protocol; conditions: Amaranthus retroflexus, post-emergence, 312 h; for pest or weed control at 15.625 g/ha: 15.625 g ai/ha, evaluated after 13 days (100=total damage to plant; 0=no damage to plant), read-out: Pigweed, Redroot damage rating; for pest or weed control at 62.5 g/ha: 62.5 g ai/ha, read-out: Pigweed, Redroot damage rating (100=total damage to plant; 0=no damage to plant); for pest or weed control at 62.5 g/ha / pest or weed control at 250 g/ha: evaluated after 13 days; for pest or weed control at 250 g/ha: 250 g ai/ha, read-out: damage to plant, Pigweed, Redroot (100=total damage to plant; 0=no damage to plant)
Outline: as §2

[11] = system: giant foxtail (Setaria faberi); experiment: Test G Post-Emergence Protocol; conditions: Setaria faberi, post-emergence, 312 h; for pest or weed control at 15.625 g/ha: 15.625 g ai/ha, evaluated after 13 days (100=total damage to plant; 0=no damage to plant), read-out: Foxtail, Giant damage rating; for pest or weed control at 62.5 g/ha: 62.5 g ai/ha, read-out: Foxtail, Giant damage rating (100=total damage to plant; 0=no damage to plant); for pest or weed control at 62.5 g/ha / pest or weed control at 250 g/ha: evaluated after 13 days; for pest or weed control at 250 g/ha: 250 g ai/ha, read-out: damage to plant, Foxtail, Giant (100=total damage to plant; 0=no damage to plant)
Outline: as §2

[12] = system: velvetleaf (Abutilon theophrasti); experiment: Test G Post-Emergence Protocol; conditions: Abutilon theophrasti, post-emergence, 312 h; for pest or weed control at 15.625 g/ha: 15.625 g ai/ha, evaluated after 13 days (100=total damage to plant; 0=no damage to plant), read-out: Velvetleaf damage rating; for pest or weed control at 62.5 g/ha: 62.5 g ai/ha, read-out: Velvetleaf damage rating (100=total damage to plant; 0=no damage to plant); for pest or weed control at 62.5 g/ha / pest or weed control at 250 g/ha: evaluated after 13 days; for pest or weed control at 250 g/ha: 250 g ai/ha, read-out: damage to plant, Velvetleaf (100=total damage to plant; 0=no damage to plant)
Outline: as §2

Compound: CN1C[C@@H](c2ccc(C(F)(F)F)cc2)[C@H](C(=O)Nc2nnc(C(F)(F)F)o2)C1=O (racemic) [Compound 1604]
- plant injury at 15.625 g/ha [1]: 0%
- plant injury at 62.5 g/ha [1]: 0%
- plant injury at 250 g/ha [1]: 0%
- pest or weed control at 15.625 g/ha [2]: 0%
- pest or weed control at 62.5 g/ha [2]: 0%
- pest or weed control at 250 g/ha [2]: 0%
- pest or weed control at 15.625 g/ha [3]: 0%
- pest or weed control at 62.5 g/ha [3]: 0%
- pest or weed control at 250 g/ha [3]: 0%
- pest or weed control at 15.625 g/ha [4]: 0%
- pest or weed control at 62.5 g/ha [4]: 0%
- pest or weed control at 250 g/ha [4]: 0%
- pest or weed control at 15.625 g/ha [5]: 0%
- pest or weed control at 62.5 g/ha [5]: 0%
- pest or weed control at 250 g/ha [5]: 0%
- pest or weed control at 15.625 g/ha [6]: 0%
- pest or weed control at 62.5 g/ha [6]: 0%
- pest or weed control at 250 g/ha [6]: 0%
- plant injury at 15.625 g/ha [7]: 0%
- plant injury at 62.5 g/ha [7]: 0%
- plant injury at 250 g/ha [7]: 0%
- pest or weed control at 15.625 g/ha [8]: 0%
- pest or weed control at 62.5 g/ha [8]: 0%
- pest or weed control at 250 g/ha [8]: 0%
- pest or weed control at 15.625 g/ha [9]: 0%
- pest or weed control at 62.5 g/ha [9]: 0%
- pest or weed control at 250 g/ha [9]: 0%
- pest or weed control at 15.625 g/ha [10]: 0%
- pest or weed control at 62.5 g/ha [10]: 0%
- pest or weed control at 250 g/ha [10]: 0%
- pest or weed control at 15.625 g/ha [11]: 0%
- pest or weed control at 62.5 g/ha [11]: 0%
- pest or weed control at 250 g/ha [11]: 0%
- pest or weed control at 15.625 g/ha [12]: 0%
- pest or weed control at 62.5 g/ha [12]: 0%
- pest or weed control at 250 g/ha [12]: 0%

Compound: Cc1cc(NC(=O)[C@@H]2C(=O)N(C)C[C@H]2c2ccc(C(F)(F)F)cc2)on1 (racemic) [Compound 1579]
- plant injury at 15.625 g/ha [1]: 0%
- plant injury at 62.5 g/ha [1]: 0%
- plant injury at 250 g/ha [1]: 0%
- pest or weed control at 15.625 g/ha [2]: 0%
- pest or weed control at 62.5 g/ha [2]: 0%
- pest or weed control at 250 g/ha [2]: 0%
- pest or weed control at 15.625 g/ha [3]: 0%
- pest or weed control at 62.5 g/ha [3]: 0%
- pest or weed control at 250 g/ha [3]: 0%
- pest or weed control at 15.625 g/ha [4]: 0%
- pest or weed control at 62.5 g/ha [4]: 0%
- pest or weed control at 250 g/ha [4]: 0%
- pest or weed control at 15.625 g/ha [5]: 0%
- pest or weed control at 62.5 g/ha [5]: 0%
- pest or weed control at 250 g/ha [5]: 0%
- pest or weed control at 15.625 g/ha [6]: 0%
- pest or weed control at 62.5 g/ha [6]: 0%
- pest or weed control at 250 g/ha [6]: 0%
- plant injury at 15.625 g/ha [7]: 0%
- plant injury at 62.5 g/ha [7]: 0%
- plant injury at 250 g/ha [7]: 0%
- pest or weed control at 15.625 g/ha [8]: 0%
- pest or weed control at 62.5 g/ha [8]: 0%
- pest or weed control at 250 g/ha [8]: 0%
- pest or weed control at 15.625 g/ha [9]: 0%
- pest or weed control at 62.5 g/ha [9]: 10%
- pest or weed control at 250 g/ha [9]: 10%
- pest or weed control at 15.625 g/ha [10]: 0%
- pest or weed control at 62.5 g/ha [10]: 0%
- pest or weed control at 250 g/ha [10]: 0%
- pest or weed control at 15.625 g/ha [11]: 0%
- pest or weed control at 62.5 g/ha [11]: 0%
- pest or weed control at 250 g/ha [11]: 0%
- pest or weed control at 15.625 g/ha [12]: 0%
- pest or weed control at 62.5 g/ha [12]: 0%
- pest or weed control at 250 g/ha [12]: 0%
